Values after ≈ are worked out from the molar mass of the structure shown. Active and inactive are the calls of the source. No cut-off for these calls is given here.
Tests used:
[1] = Aqueous solubility of the compound at 1 mg measured after 12 hrs by shake flask method; type: physicochemical; conditions: water
[2] = target: Amyloid-beta precursor protein (Homo sapiens) (UniProt P05067); test: Inhibition of self-induced amyloid beta 42 (unknown origin) aggregation at 1 uM incubated for 20 hrs by thioflavin-T fluorescence assay relative to control
[3] = Cytotoxicity against rat PC12 cells measured after 24 hrs by WST8/PMS assay; type: cell-based, PC-12
[4] = Antioxidant activity assessed as DPPH radical scavenging activity measured after 30 mins; type: functional
[5] = target: Amyloid-beta precursor protein (Homo sapiens) (UniProt P05067); test: Disaggregation of self-induced amyloid beta 42 (unknown origin) preformed fibrils assessed as length of nanorod-like fragment by TEM analysis
[6] = target: Amyloid-beta precursor protein (Homo sapiens) (UniProt P05067); test: Disaggregation of self-induced amyloid beta 42 (unknown origin) preformed fibrils assessed as appearance of nanorod-like fragment by […] analysis
[7] = target: Amyloid-beta precursor protein (Homo sapiens) (UniProt P05067); test: Inhibition of self-induced amyloid beta 42 (unknown origin) fibril formation at 10 uM incubated for 6 hrs by thioflavin-T fluorescence assay relative to control
[8] = target: Amyloid-beta precursor protein (Homo sapiens) (UniProt P05067); test: Inhibition of self-induced amyloid beta 42 (unknown origin) aggregation at 10 uM incubated for 20 hrs by thioflavin-T fluorescence assay relative to control

Amyloid-beta precursor protein (Homo sapiens), sequence (P05067 whole entry, the tested form may be a part): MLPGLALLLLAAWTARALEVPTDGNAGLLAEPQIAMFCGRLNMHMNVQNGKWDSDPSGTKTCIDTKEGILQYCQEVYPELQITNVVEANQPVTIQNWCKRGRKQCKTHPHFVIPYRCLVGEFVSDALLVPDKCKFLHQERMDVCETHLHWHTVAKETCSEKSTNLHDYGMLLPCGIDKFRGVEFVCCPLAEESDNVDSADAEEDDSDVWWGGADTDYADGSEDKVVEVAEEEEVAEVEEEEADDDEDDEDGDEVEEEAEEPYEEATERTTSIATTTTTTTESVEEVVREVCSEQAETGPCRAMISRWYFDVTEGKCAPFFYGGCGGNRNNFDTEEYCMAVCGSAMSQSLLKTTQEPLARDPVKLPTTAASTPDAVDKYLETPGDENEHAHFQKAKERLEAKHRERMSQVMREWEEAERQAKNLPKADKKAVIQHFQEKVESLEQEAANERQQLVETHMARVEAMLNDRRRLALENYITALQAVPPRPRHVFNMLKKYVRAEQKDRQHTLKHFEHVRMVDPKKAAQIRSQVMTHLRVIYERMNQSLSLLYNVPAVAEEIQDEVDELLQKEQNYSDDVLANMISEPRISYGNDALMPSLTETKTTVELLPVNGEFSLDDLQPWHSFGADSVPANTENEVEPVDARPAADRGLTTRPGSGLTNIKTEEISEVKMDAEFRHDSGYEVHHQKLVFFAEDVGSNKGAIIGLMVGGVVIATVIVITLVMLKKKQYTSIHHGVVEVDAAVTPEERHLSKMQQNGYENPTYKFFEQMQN

Compound	solubility thermodynamic at 12 h [1] [µM]	inhibition [2] [%]	IC50 [4] [µM]	Activity [5] [nm]	Activity [6]	inhibition [7] [%]	inhibition [8] [%]	CC50 at 24 h [3] [µM]
O=C(/C=C/c1cc(O)ccc1O)CC(=O)c1cccc(O)c1O	32 (≈ 10.1 µg/mL)	100	28	–	–	–	–	63
O=C(/C=C/c1ccc(O)c(O)c1)c1cc(O)ccc1O	16 (≈ 4.36 µg/mL)	85	39	–	–	–	–	80
O=C(/C=C/c1cccc(O)c1)CC(=O)c1ccc(O)c(O)c1	25 (≈ 7.46 µg/mL)	85	10	–	–	–	–	> 100
COc1cc(/C=C/C(=O)CC(=O)/C=C/c2ccc(O)c(OC)c2)ccc1O [CURCUMIN]	0.19 (≈ 0.07 µg/mL)	–	45	–	–	–	–	42
O=C(/C=C/c1ccc(O)c(O)c1)/C=C/c1cc(O)ccc1O	123 (≈ 36.7 µg/mL)	100	25	–	–	–	–	39
O=C(/C=C/c1ccccc1O)/C=C/c1cccc(O)c1O	151 (≈ 42.6 µg/mL)	98	99	–	–	–	–	54
O=C(/C=C/c1cc(O)ccc1O)/C=C/c1cccc(O)c1O	271 (≈ 80.8 µg/mL)	100	13	50 to 500	Active	–	–	59
O=C(/C=C/c1cc(O)ccc1O)CC(=O)/C=C/c1cc(O)ccc1O	5 (≈ 1.7 µg/mL)	99	57	–	–	95 to 100	–	24
O=C(/C=C/c1cccc(O)c1)/C=C/c1cccc(O)c1O	184 (≈ 51.9 µg/mL)	90	48	–	–	–	–	46
O=C(/C=C(O)/C=C/c1ccccc1O)/C=C/c1ccc(O)c(O)c1	31 (≈ 10.1 µg/mL)	62	–	–	–	–	–	–
O=C(/C=C/c1ccc(O)c(O)c1)/C=C/c1ccccc1O	111 (≈ 31.3 µg/mL)	100	62	–	–	–	–	34
O=C(/C=C/c1ccc(O)cc1)CC(=O)/C=C/c1cccc(O)c1O	4.8 (≈ 1.56 µg/mL)	–	27	–	–	95 to 100	100	8.5
O=C(/C=C/c1ccccc1O)CC(=O)c1ccc(O)c(O)c1	77 (≈ 23 µg/mL)	90	16	–	–	–	–	> 90
O=C(/C=C/c1cccc(O)c1)CC(=O)/C=C/c1cccc(O)c1O	8.2 (≈ 2.66 µg/mL)	–	29	–	–	95 to 100	100	38
O=C(/C=C/c1ccccc1O)CC(=O)/C=C/c1cccc(O)c1O	11 (≈ 3.57 µg/mL)	92	23	–	–	95 to 100	–	34
O=C(/C=C/c1cccc(O)c1)CC(=O)/C=C/c1cc(O)ccc1O	5.8 (≈ 1.88 µg/mL)	56	88	–	–	95 to 100	–	15
O=C(/C=C/c1cccc(O)c1O)CC(=O)/C=C/c1cccc(O)c1O	5.3 (≈ 1.8 µg/mL)	93	30	–	–	95 to 100	–	39
O=C(/C=C/c1ccc(O)cc1)/C=C/c1cccc(O)c1O	120 (≈ 33.9 µg/mL)	96	40	–	–	–	–	12

Continued, in another order:

solubility thermodynamic at 12 h [1] [µM]	inhibition [2] [%]	IC50 [4] [µM]	Activity [5] [nm]	Activity [6]	inhibition [7] [%]	inhibition [8] [%]	Compound	CC50 at 24 h [3] [µM]
47 (≈ 14.8 µg/mL)	98	82	–	–	–	–	O=C(/C=C/c1cc(O)ccc1O)CC(=O)c1ccc(O)c(O)c1	> 100
19 (≈ 5.36 µg/mL)	75	24	–	–	–	–	O=C(/C=C/c1ccc(O)cc1)/C=C/c1ccc(O)c(O)c1	12
33 (≈ 8.98 µg/mL)	98	48	–	–	–	–	O=C(/C=C/c1cccc(O)c1O)c1cc(O)ccc1O	89
4.4 (≈ 1.43 µg/mL)	80	48	–	–	95 to 100	–	O=C(/C=C/c1ccccc1O)CC(=O)/C=C/c1cc(O)ccc1O	38
0.57 (≈ 0.185 µg/mL)	53	41	–	–	95 to 100	–	O=C(/C=C/c1ccc(O)cc1)CC(=O)/C=C/c1cc(O)ccc1O	21
60 (≈ 16.9 µg/mL)	100	71	–	–	–	–	O=C(/C=C/c1cccc(O)c1)/C=C/c1ccc(O)c(O)c1	> 100
3.8 (≈ 1.29 µg/mL)	–	19	–	–	95 to 100	98	O=C(/C=C/c1ccc(O)c(O)c1)CC(=O)/C=C/c1cccc(O)c1O	16
54 (≈ 18.4 µg/mL)	57	60	–	–	95 to 100	–	O=C(/C=C/c1ccc(O)c(O)c1)CC(=O)/C=C/c1cc(O)ccc1O	51
100 (≈ 34 µg/mL)	100	27	–	–	95 to 100	–	O=C(/C=C/c1cc(O)ccc1O)CC(=O)/C=C/c1cccc(O)c1O	53

Reference: ChEMBL document CHEMBL4387774, “Design, synthesis, and evaluation of a water soluble C5-monoketone type curcumin analogue as a potent amyloid β aggregation inhibitor” (Bioorg Med Chem Lett, 2019)
